Data on 18 compounds can be found in ChEMBL document CHEMBL1130931, “Synthesis and structure-activity relationships of 7-(2-aminoalkyl)morpholinoquinolones as anti-Helicobacter pylori agents” (1998).

Converted amounts (≈) assume the structure as drawn.

What all share (format): functional
For assay [1], the system named is Gerbillinae. As to the kind of experiment: The ratio of the number of Mongolian gerbils in which Helicobacter pylori was not detected to that of Mongolian gerbils tested (percent) was represented as clearance rate at 1 mg/kg dose.
In assay [2] the test system is Gerbillinae. As to the kind of experiment: The ratio of the number of Mongolian gerbils in which Helicobacter pylori was not detected to that of Mongolian gerbils tested (percent) was represented as clearance rate at 0.3 mg/kg dose.
In the next assay the test system is Helicobacter pylori. As to the kind of experiment: In vitro minimum inhibitory concentration against growth of Helicobacter pylori ATCC 43504.
Assay [3] relates to Gerbillinae. As to the kind of experiment: The ratio of the number of Mongolian gerbils in which Helicobacter pylori was not detected to that of Mongolian gerbils tested (percent) was represented as clearance rate.
Assay [4] relates to Gerbillinae. The assay can be described thus: The ratio of the number of Mongolian gerbils in which Helicobacter pylori was not detected to that of Mongolian gerbils tested (percent) was represented as clearance rate at 10 mg/kg dose.
Assay [5] concerns Gerbillinae. As to the kind of experiment: The ratio of the number of Mongolian gerbils in which Helicobacter pylori was not detected to that of Mongolian gerbils tested (percent) was represented as clearance rate at 30 mg/kg dose.
In assay [6] the test system is Gerbillinae. The assay can be described thus: The ratio of the number of Mongolian gerbils in which Helicobacter pylori was not detected to that of Mongolian gerbils tested (percent) was represented as clearance rate at 3 mg/kg dose.

With `COc1c(N2CCO[C@@H](CN(C)C)C2)c(F)cc2c(=O)c(C(=O)O)cn(C3CC3)c12`, the Ratio in the assay on Gerbillinae [1] was 100%; in the assay with Gerbillinae [2], 0%. For the same compound, 0.012 µg/mL (≈ 0.0286 µM) was the least that counted as inhibitory in the assay with Helicobacter pylori (MIC).
Regarding `C[C@@H]1CN(c2c(F)c(N)c3c(=O)c(C(=O)O)cn(C4CC4)c3c2F)C[C@H](C)N1` [SPARFLOXACIN], in the assay on Gerbillinae [3], the Ratio amounted to 0%. In addition, the MIC against Helicobacter pylori came out at 0.2 µg/mL (≈ 0.51 µM).
As to `COc1c(N2CCOC(CN(C)C)C2)c(F)cc2c(=O)c(C(=O)O)cn(C3CC3)c12` (configuration not stated), in the assay on Helicobacter pylori, the lowest concentration to inhibit growth (MIC) was 0.025 µg/mL (≈ 0.0596 µM).
Consider `NCC1CN(c2c(F)cc3c(=O)c(C(=O)O)cn(C4CC4)c3c2F)CCO1` (configuration not stated), for which the Ratio in the assay on Gerbillinae [3] worked out at 80%. Moreover, 0.05 µg/mL (≈ 0.132 µM) was the least that counted as inhibitory against Helicobacter pylori (MIC).
As to `CN(C)CC1CN(c2cc3c(cc2F)c(=O)c(C(=O)O)cn3C2CC2)CCO1` (configuration not stated), the MIC with Helicobacter pylori was 0.1 µg/mL (≈ 0.257 µM).
Still for that read-out and setting: then `CNCC1CN(c2c(F)cc3c(=O)c(C(=O)O)cn(C4CC4)c3c2F)CCO1` (configuration not stated), with 0.05 µg/mL (≈ 0.127 µM).
`CCCNCC1CN(c2c(F)cc3c(=O)c(C(=O)O)cn(C4CC4)c3c2F)CCO1` (configuration not stated) came in with an MIC in the assay on Helicobacter pylori of 0.39 µg/mL (≈ 0.925 µM).
Take `CN(C)CC1CN(c2c(F)cc3c(=O)c(C(=O)O)cn(C4CC4)c3c2Cl)CCO1` (configuration not stated): the minimum inhibitory concentration (MIC) in the assay with Helicobacter pylori is 0.05 µg/mL (≈ 0.118 µM).
Turning to `NCCC1CN(c2c(F)cc3c(=O)c(C(=O)O)cn(C4CC4)c3c2F)CCO1` (configuration not stated), the MIC in the assay on Helicobacter pylori is 0.2 µg/mL (≈ 0.508 µM). Against the preceding compound, the MIC is about 4-fold higher.
Consider `CCN(CC)CC1CN(c2c(F)cc3c(=O)c(C(=O)O)cn(C4CC4)c3c2F)CCO1` (configuration not stated), for which, in the assay on Helicobacter pylori, it took 0.2 µg/mL (≈ 0.459 µM) to inhibit growth (MIC).
Consider `NC1CCN(c2nc3c(cc2F)c(=O)c(C(=O)O)cn3-c2ccc(F)cc2F)C1` (configuration not stated) [TOSUFLOXACIN], for which the Ratio with Gerbillinae [3] is on record as 0%. For the same compound, in the assay on Helicobacter pylori, 0.39 µg/mL (≈ 0.965 µM) was the least that counted as inhibitory (MIC).
`CC1(C)S[C@@H]2[C@H](NC(=O)[C@H](N)c3ccc(O)cc3)C(=O)N2[C@H]1C(=O)O` [AMOXICILLIN] registered an MIC against Helicobacter pylori of 0.025 µg/mL (≈ 0.0684 µM).
`CC[C@H]1OC(=O)[C@H](C)[C@@H](O[C@H]2C[C@@](C)(OC)[C@@H](O)[C@H](C)O2)[C@H](C)[C@@H](O[C@@H]2O[C@H](C)C[C@H](N(C)C)[C@H]2O)[C@](C)(OC)C[C@@H](C)C(=O)[C@H](C)[C@@H](O)[C@]1(C)O` [CLARITHROMYCIN]: the Ratio is 0% with Gerbillinae [4] and 100% in the assay with Gerbillinae [5]. Also, in the assay with Helicobacter pylori, 0.025 µg/mL (≈ 0.0334 µM) was the least that counted as inhibitory (MIC).
As for `CC(=O)NCC1CN(c2c(F)cc3c(=O)c(C(=O)O)cn(C4CC4)c3c2F)CCO1` (configuration not stated), the MIC against Helicobacter pylori was found to be 0.78 µg/mL (≈ 1.85 µM).
On the same count and under the same terms, then `CCNCC1CN(c2c(F)cc3c(=O)c(C(=O)O)cn(C4CC4)c3c2F)CCO1` (configuration not stated), with 0.05 µg/mL (≈ 0.123 µM).
Same read-out and setting: then `CN(C)CC1CN(c2c(F)cc3c(=O)c(C(=O)O)cn(C4CC4)c3c2F)CCO1` (configuration not stated), with 0.025 µg/mL (≈ 0.0614 µM).
For the compound `C[C@H]1COc2c(N3CCN(C)CC3)c(F)cc3c(=O)c(C(=O)O)cn1c23.C[C@H]1COc2c(N3CCN(C)CC3)c(F)cc3c(=O)c(C(=O)O)cn1c23.O` [LEVOFLOXACIN], the Ratio is 0% in the assay on Gerbillinae [6] and 60% in the assay on Gerbillinae [4]. This compound also displayed an MIC against Helicobacter pylori of 0.2 µg/mL.
For the compound `COc1c(N2CCO[C@H](CN(C)C)C2)c(F)cc2c(=O)c(C(=O)O)cn(C3CC3)c12`, in the assay with Helicobacter pylori, inhibition of growth (MIC) required 0.39 µg/mL (≈ 0.93 µM).

In general, MIC refers to the least concentration at which growth counts as inhibited. A low value points to inhibition by little substance.
